Laboratory results as given in ChEMBL document CHEMBL6103648, “AI-Driven Discovery of Highly Specific and Efficacious hCES2A Inhibitors for Ameliorating Irinotecan-Triggered Gut Toxicity” (J Med Chem, 2025).
Activity calls are given as the source filed them. No cut-off for these calls is given here.

Experiments:
[1] = Drug distribution in ileum of C57BL/6J mouse at 100 mg/kg, po administered as single dose measured for 0.5 to 3 hrs by UHPLC-Q-Orbitrap HRMS analysis; type: ADME, organism-based; details: in vivo, time 0.5-3 hrs
HepG2 = assay: (§1) Inhibition of CES2A in human HepG2 cells using NCEN as substrate assessed as decrease in green fluorescence preincubated fir 1 hr followed by substrate addition measured after 45 mins by Hoechst33342 staining based analysis; type: cell-based; details: time 105.0 min
[2] = as §1; type: cell-based
[3] = Sub-acute toxicity in C57BL/6J mouse assessed as abnormality in lung at 100 mg/kg/day, po treated for 14 days consecutively by H and E staining based analysis; type: organism-based; details: in vivo, 336 h, time 14 day
[4] = Permeability across basal to apical side in human Caco-2 cells assessed as cumulative penetration amount at 100 uM incubated for 120 mins by UPLC-MS/MS analysis; type: ADME, cell-based; details: caco-2, 2 h
Homo sapiens [5] = species on record: Homo sapiens; assay: Irreversible inhibition of human CES2A measured after 12 hrs by dialysis assay
[6] = Apparent permeability across apical to basal side in human Caco-2 cells at 100 uM incubated for 120 mins by UPLC-MS/MS analysis; type: ADME, cell-based
[7] = Inhibition of human CES2A using fluorescein diacetate as substrate preincubated for 3 mins followed by substrate addition measured after 30 mins by fluorescence based assay
Mus musculus [8] = assay: Inhibition of irinotecan-triggered gut toxicity in C57BL/6J mouse bearing tumor cells assessed as increase in body weight at 25 to 50 mg/kg/day, po treated for 14 days; type: functional, organism-based; details: dose 25-50 mg/kg/day, time 14.0 day
[9] = Inhibition of human CES1A using NLMe as substrate preincubated for 3 mins followed by substrate addition measured after 30 mins by chemiluminescence analysis
Mus musculus [10] = assay: Inhibition of irinotecan-triggered gut toxicity in C57BL/6J mouse bearing tumor cells assessed as decrease in DAI score at 25 to 50 mg/kg/day, po treated for 14 days; type: functional, organism-based; details: dose 25-50 mg/kg/day, time 14.0 day
[11] = Efflux ratio of apparent permeability across basal to apical side over apical to basal side in human Caco-2 cells at 100 uM incubated for 120 mins by UPLC-MS/MS analysis; type: ADME, cell-based
[12] = Inhibition of human pancreatic lipase using DDAO-ol as substrate preincubated for 3 mins followed by substrate addition by fluorescence based assay
Acetylcholinesterase = Acetylcholinesterase (Homo sapiens, UniProt P22303); assay: Inhibition of human AChE using ATCI as substrate incubated for 3 mins by Ellman's method
Mus musculus [13] = assay: Inhibition of irinotecan-triggered gut toxicity in C57BL/6J mouse bearing tumor cells assessed as decrease in IL-6 level in colon tissue administered orally treated for 14 days; type: functional, organism-based; details: dose 25-50 mg/kg/day, route po, time 14.0 day
[14] = Sub-acute toxicity in C57BL/6J mouse assessed as change in TP level at 100 mg/kg/day, po treated for 14 days consecutively; type: organism-based; details: in vivo, 336 h, time 14 day
Mus musculus [15] = assay: Inhibition of irinotecan-triggered gut toxicity in C57BL/6J mouse bearing tumor cells assessed as increase in ZO-1 level in colon tissue at 25 to 50 mg/kg/day, po treated for 14 days by immunofluorescence based analysis; type: functional, organism-based; details: dose 25-50 mg/kg/day, time 14.0 day
Homo sapiens [16] = species on record: Homo sapiens; assay: Inhibition of human CES2A assessed as decrease in residual activity measured upto 30 mins; details: dose <= 1.6 nM
Mus musculus [17] = assay: Inhibition of irinotecan-triggered gut toxicity in C57BL/6J mouse bearing tumor cells assessed as increase in colonic length at 25 to 50 mg/kg/day, po treated for 14 days; type: functional, organism-based; details: dose 25-50 mg/kg/day, time 14.0 day
Dipeptidyl peptidase 4 = Dipeptidyl peptidase 4 (Homo sapiens, UniProt P27487); assay: Inhibition of human serum DPP-IV using GP-BAN as substrate preincubated for 3 mins followed by substrate addition by fluorescence based assay
[18] = Apparent permeability across basal to apical side in human Caco-2 cells at 50 uM incubated for 120 mins by UPLC-MS/MS analysis; type: ADME, cell-based
Mus musculus [19] = assay: Inhibition of irinotecan-triggered gut toxicity in C57BL/6J mouse bearing tumor cells assessed as decrease in IL-1beta level in colon tissue administered orally treated for 14 days; type: functional, organism-based; details: dose 25-50 mg/kg/day, route po, time 14.0 day
Cytochrome P450 2C8 = molecular target: T1, Cytochrome P450 2C8 (Homo sapiens, UniProt P10632); assay: Inhibition of CYP2C8 in human liver microsomes using paclitaxel as substrate upto 10 uM; type: ADME, Microsome
T1 sequence (P10632 whole entry): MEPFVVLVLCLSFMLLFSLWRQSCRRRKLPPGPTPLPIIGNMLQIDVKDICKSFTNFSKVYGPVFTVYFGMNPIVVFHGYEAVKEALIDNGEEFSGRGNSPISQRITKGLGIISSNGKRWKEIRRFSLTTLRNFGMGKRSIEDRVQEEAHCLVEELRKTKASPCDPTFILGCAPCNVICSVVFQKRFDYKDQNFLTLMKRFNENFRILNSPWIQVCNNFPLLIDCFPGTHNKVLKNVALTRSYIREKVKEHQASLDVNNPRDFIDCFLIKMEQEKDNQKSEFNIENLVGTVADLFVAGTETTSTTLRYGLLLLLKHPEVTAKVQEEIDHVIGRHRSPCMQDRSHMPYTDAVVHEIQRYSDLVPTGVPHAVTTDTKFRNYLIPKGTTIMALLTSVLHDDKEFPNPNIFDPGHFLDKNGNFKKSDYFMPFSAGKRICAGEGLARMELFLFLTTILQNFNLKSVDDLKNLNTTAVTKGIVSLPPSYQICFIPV

Cytochrome P450 2E1 = Cytochrome P450 2E1 (Homo sapiens, UniProt P05181); assay: Inhibition of CYP2E1 in human liver microsomes using chlorzoxazone as substrate upto 10 uM; type: ADME, Microsome
[20] = Chemical stability in artificial gastrointestinal fluid at 10 uM measured upto 120 mins by UPLC-MS/MS analysis; type: physicochemical; details: 2 h
Cholinesterase = Cholinesterase (Homo sapiens, UniProt P06276); assay: Inhibition of human BuChE using BTCI as substrate incubated for 33 mins by Ellman's method
[21] = Sub-acute toxicity in C57BL/6J mouse assessed as change in mental state at 100 mg/kg/day, po treated for 14 days consecutively; type: organism-based; details: in vivo, 336 h, time 14 day
[22] = Sub-acute toxicity in C57BL/6J mouse assessed as change in ALP level at 100 mg/kg/day, po treated for 14 days consecutively; type: organism-based; details: in vivo, 336 h, time 14 day
[23] = Permeability across apical to basal side in human Caco-2 cells assessed as cumulative penetration amount at 50 uM incubated for 120 mins by UPLC-MS/MS analysis; type: ADME, cell-based; details: caco-2, 2 h
Cytochrome P450 3A4 = Cytochrome P450 3A4 (Homo sapiens, UniProt P08684); assay: Inhibition of CYP3A4 in human liver microsomes using testosterone as substrate upto 10 uM; type: ADME, Microsome
[24] = Sub-acute toxicity in C57BL/6J mouse assessed as change in AST level at 100 mg/kg/day, po treated for 14 days consecutively; type: organism-based; details: in vivo, 336 h, time 14 day
[25] = Permeability across basal to apical side in human Caco-2 cells assessed as cumulative penetration amount at 50 uM incubated for 120 mins by UPLC-MS/MS analysis; type: ADME, cell-based; details: caco-2, 2 h
[26] = Sub-acute toxicity in C57BL/6J mouse assessed as abnormality in gastrointestinal tract at 100 mg/kg/day, po treated for 14 days consecutively by H and E staining based analysis; type: organism-based; details: in vivo, 336 h, time 14 day

Sequence of Cholinesterase (P06276 whole entry): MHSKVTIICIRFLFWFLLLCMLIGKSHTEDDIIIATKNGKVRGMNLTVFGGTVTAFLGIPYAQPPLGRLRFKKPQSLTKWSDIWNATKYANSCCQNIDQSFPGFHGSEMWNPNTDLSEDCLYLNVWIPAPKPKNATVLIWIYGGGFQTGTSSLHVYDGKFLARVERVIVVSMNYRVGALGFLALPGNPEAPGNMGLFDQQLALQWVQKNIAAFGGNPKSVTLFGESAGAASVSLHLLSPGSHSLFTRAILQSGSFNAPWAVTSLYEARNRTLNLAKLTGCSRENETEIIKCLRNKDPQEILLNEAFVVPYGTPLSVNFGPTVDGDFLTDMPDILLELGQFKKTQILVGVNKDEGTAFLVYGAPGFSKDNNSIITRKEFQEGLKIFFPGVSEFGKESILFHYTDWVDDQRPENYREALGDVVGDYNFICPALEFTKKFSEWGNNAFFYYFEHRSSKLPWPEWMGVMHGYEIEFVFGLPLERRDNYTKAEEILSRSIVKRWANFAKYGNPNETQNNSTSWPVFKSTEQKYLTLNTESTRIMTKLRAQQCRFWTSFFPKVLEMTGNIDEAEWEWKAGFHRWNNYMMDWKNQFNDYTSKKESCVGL
Sequence of Cytochrome P450 2E1 (P05181 whole entry): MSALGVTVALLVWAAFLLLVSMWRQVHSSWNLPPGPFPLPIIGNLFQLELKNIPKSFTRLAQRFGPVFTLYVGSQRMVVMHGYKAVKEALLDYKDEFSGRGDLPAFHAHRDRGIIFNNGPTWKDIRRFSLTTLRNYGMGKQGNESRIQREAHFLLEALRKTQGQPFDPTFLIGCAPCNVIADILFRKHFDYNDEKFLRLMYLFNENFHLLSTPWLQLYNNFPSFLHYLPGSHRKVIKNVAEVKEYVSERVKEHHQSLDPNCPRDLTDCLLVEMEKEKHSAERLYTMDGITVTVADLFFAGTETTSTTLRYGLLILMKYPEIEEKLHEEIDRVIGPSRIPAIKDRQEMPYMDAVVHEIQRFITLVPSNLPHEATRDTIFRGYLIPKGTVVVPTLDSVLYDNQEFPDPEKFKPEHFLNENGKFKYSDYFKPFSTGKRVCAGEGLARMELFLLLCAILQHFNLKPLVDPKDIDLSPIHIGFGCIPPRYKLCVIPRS
Sequence of Dipeptidyl peptidase 4 (P27487 whole entry): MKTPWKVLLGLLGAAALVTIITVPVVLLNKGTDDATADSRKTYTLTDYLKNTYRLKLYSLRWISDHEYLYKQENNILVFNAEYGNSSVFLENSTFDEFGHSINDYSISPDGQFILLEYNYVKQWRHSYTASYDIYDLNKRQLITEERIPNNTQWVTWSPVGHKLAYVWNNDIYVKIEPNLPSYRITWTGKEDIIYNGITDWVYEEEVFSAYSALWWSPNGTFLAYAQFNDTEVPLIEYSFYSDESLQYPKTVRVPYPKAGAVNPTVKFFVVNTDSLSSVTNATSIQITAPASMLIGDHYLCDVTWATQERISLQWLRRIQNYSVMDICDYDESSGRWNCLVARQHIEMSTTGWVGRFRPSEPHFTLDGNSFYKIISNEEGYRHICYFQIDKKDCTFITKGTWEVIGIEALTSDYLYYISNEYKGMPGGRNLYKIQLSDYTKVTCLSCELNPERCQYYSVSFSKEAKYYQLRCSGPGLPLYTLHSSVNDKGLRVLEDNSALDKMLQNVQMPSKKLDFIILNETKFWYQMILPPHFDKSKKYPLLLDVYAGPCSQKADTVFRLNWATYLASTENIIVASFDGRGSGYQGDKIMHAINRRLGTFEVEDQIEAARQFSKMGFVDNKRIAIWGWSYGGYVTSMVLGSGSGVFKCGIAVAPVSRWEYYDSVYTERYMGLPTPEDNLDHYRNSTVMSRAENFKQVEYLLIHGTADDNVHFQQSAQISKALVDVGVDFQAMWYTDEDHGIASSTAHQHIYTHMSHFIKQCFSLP
Sequence of Cytochrome P450 3A4 (P08684 whole entry): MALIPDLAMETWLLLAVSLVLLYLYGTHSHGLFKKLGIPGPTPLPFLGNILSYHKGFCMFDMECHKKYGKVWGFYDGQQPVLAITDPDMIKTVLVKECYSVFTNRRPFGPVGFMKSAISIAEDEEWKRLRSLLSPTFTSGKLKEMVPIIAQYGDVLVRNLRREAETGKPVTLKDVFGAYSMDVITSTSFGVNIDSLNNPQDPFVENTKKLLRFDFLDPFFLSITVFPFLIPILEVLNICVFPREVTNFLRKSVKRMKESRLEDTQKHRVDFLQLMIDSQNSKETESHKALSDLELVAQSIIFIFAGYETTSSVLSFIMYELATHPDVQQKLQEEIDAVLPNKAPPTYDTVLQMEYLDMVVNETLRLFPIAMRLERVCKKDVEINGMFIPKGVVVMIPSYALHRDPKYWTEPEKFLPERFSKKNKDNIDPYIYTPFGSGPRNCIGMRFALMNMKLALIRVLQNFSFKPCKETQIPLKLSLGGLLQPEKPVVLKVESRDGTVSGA
Sequence of Acetylcholinesterase (P22303 whole entry): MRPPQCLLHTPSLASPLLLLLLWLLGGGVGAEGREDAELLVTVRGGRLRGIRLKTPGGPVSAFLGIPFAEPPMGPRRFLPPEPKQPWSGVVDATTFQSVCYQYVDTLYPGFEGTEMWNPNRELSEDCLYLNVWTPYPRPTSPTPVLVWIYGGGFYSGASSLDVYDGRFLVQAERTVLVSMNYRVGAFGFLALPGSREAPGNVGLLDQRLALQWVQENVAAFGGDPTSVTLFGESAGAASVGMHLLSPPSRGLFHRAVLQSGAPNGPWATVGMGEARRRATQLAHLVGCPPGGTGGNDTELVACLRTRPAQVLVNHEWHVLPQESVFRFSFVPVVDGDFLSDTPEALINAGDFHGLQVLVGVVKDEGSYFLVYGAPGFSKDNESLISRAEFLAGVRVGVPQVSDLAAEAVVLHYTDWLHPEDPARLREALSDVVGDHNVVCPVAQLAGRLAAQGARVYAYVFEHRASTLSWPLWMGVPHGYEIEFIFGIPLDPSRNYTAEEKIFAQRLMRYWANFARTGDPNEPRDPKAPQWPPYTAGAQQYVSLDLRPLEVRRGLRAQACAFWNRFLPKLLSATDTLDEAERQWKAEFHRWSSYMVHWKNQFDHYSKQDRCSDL

Compound: CCN(C)C(=O)Oc1ccc(C(=O)N2CCC(Cc3ccccc3)CC2)cc1OC
- Drug uptake [1]: Active
- inhibition (HepG2): Dose-dependent-effect
- IC50 [2]: 0.36 nM
- Activity [3]: Non-toxic
- Activity [4]: 6.29 µM
- inhibition (Homo sapiens [5]): Active
- Papp A→B at 2 h, 100 µM [6]: 11.7 ×10⁻⁶ cm/s
- IC50 [7]: 0.69 nM
- inhibition (Mus musculus [8]): Active
- IC50 [9]: 2420 nM
- inhibition (Mus musculus [10]): Active
- efflux ratio at 2 h, 100 µM [11]: 0.66
- IC50 [12]: > 10000 nM
- IC50 (Acetylcholinesterase): > 10000 nM
- inhibition (Mus musculus [13]): Active
- Activity [14]: Non-toxic
- inhibition (Mus musculus [15]): Active
- inhibition (Homo sapiens [16]): Dose-dependent-effect
- inhibition (Mus musculus [17]): Active
- IC50 (Dipeptidyl peptidase 4): > 10000 nM
- Papp B→A at 2 h, 50 µM [18]: 10.5 ×10⁻⁶ cm/s
- inhibition (Mus musculus [19]): Active
- inhibition (INH) (Cytochrome P450 2C8): Not_active
- inhibition (INH) (Cytochrome P450 2E1): Not_active
- Stability [20]: Stable
- IC50 (Cholinesterase): 834 nM
- Activity [21]: Non-toxic
- Activity [22]: Non-toxic
- Activity [23]: 6.31 µM
- inhibition (INH) (Cytochrome P450 3A4): Not_active
- Activity [24]: Non-toxic
- Activity [25]: 4.23 µM
- Activity [26]: Non-toxic
